Laboratory results taken from publication PMC6210068 (ACS Omega, 2018).
Like-named read-outs stand apart in the source and are kept apart here.

Columns and labels:
rat kidney TSPO = rat kidney TSPO (Rattus norvegicus, UniProt P16257); test: Radioligand binding at TSPO; settings: for Ki: TSPO, rat TSPO, [3H]PK11195
MOR [1] = molecular target: T1, MOR (Homo sapiens, UniProt P35372); test: β-arrestin-recruitment TANGO assay at MOR; assay type: cell-based; settings: 10 μM; for MOR Antag (%): vs naloxone 121 = 100% inhibition, agonist 99 (300 nM); for MOR Ag (%): vs standard agonist = 100%
hDAT = hDAT (Homo sapiens, UniProt Q01959); test: Radioligand binding at DAT; settings: for DAT, inhibition, % of control at 10 μM: [3H]WIN35428, negative = enhanced radioligand binding
KOR [2] = molecular target: T2, KOR (Homo sapiens, UniProt P41145); test: β-arrestin-recruitment TANGO assay at KOR; assay type: cell-based; settings: 10 μM; vs naloxone 121 = 100% inhibition; agonist 109 (3 nM)
DOR [3] = molecular target: T3, DOR (Homo sapiens, UniProt P41143); test: Radioligand binding at DOR
DOR [4] = molecular target: T3, DOR; test: β-arrestin-recruitment TANGO assay at DOR; assay type: cell-based; settings: 10 μM; for DOR Antag (%): vs naloxone 121 = 100% inhibition; for DOR Ag (%): vs standard agonist = 100%
hNOP = hNOP (Homo sapiens, UniProt P41146); test: Radioligand binding at NOP
hA1AR = molecular target: T4, hA1AR (Homo sapiens, UniProt P30542); test: hA1AR binding; settings: for inhibition at 10 µM: read-out: binding inhibition at hA1AR (% at 10 μM)
T4 sequence (P30542 1-326): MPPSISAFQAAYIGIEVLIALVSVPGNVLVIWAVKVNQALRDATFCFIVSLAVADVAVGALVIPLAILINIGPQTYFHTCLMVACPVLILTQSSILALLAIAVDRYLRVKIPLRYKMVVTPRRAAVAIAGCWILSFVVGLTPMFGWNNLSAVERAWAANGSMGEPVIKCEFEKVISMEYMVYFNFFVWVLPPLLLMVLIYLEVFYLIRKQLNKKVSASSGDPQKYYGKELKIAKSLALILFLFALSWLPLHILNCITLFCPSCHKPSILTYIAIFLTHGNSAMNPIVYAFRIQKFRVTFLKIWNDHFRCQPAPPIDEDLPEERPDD

MOR [5] = molecular target: T1, MOR; test: biochemical; assay type: binding; settings: for MOR, inhibition of radioligand binding at 10 μM (class): Table 2
KOR [6] = molecular target: T2, KOR; test: biochemical; assay type: binding; settings: for Ki: KOR, [3H]U69593, mean ± SEM, N = 2–4
hA3AR = molecular target: T5, hA3AR (Homo sapiens, UniProt P0DMS8); test: A3AR binding
T5 sequence (P0DMS8 1-318): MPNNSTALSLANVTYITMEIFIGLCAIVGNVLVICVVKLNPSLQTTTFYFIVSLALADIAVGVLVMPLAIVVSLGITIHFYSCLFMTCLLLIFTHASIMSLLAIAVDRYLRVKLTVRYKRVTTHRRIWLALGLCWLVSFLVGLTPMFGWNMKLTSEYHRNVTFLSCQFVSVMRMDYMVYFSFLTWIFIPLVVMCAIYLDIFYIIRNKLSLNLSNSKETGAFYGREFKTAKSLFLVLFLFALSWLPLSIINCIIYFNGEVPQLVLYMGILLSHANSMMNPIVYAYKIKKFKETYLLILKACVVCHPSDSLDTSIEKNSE

KOR [7] = molecular target: T2, KOR; assay type: cell-based
hA2AAR = hA2AAR (Homo sapiens, UniProt P29274); test: hA2AAR binding; settings: read-out: binding inhibition at hA2AAR (% at 10 μM)
rat σ2 receptor = molecular target: T6, rat σ2 receptor (Rattus norvegicus, UniProt Q5U3Y7); test: PDSP binding, σ2 receptor
T6 sequence (Q5U3Y7 1-176): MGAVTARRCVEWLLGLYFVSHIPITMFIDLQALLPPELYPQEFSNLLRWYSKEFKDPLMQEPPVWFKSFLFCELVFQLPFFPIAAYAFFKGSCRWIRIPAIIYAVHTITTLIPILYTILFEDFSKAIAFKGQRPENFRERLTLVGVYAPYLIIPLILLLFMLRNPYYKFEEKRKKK

T3 sequence (P41143 whole entry): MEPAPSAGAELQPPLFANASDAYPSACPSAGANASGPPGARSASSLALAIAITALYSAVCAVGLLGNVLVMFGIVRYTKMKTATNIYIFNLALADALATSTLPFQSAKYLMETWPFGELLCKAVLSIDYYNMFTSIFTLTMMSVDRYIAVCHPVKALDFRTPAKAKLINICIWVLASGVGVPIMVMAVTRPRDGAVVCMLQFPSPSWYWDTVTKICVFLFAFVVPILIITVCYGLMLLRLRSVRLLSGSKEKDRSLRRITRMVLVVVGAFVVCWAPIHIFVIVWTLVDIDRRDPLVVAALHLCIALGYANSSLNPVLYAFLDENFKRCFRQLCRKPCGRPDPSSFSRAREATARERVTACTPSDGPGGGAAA
hNOP, sequence (P41146 whole entry): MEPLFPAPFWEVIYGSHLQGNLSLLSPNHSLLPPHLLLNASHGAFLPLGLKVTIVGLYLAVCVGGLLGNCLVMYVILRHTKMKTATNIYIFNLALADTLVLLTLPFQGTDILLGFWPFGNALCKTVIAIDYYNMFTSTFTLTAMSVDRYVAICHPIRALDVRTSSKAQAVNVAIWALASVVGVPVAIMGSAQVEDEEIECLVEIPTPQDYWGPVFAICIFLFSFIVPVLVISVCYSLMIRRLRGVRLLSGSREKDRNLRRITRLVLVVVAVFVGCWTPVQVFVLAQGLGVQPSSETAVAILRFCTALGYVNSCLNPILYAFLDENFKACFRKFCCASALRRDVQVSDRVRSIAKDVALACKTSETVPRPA
hA2AAR, sequence (P29274 whole entry): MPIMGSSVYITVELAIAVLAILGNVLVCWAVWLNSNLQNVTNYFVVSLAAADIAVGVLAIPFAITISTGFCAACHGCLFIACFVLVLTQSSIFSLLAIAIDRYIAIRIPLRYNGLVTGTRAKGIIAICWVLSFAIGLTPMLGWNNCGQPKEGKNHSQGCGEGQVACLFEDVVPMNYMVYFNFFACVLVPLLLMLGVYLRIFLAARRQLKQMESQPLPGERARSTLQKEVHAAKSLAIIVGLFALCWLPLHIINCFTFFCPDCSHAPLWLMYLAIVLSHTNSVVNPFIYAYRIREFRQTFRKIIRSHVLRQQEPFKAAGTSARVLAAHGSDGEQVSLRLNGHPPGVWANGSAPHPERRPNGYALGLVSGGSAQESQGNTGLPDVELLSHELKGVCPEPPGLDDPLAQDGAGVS
rat kidney TSPO, sequence (P16257 whole entry): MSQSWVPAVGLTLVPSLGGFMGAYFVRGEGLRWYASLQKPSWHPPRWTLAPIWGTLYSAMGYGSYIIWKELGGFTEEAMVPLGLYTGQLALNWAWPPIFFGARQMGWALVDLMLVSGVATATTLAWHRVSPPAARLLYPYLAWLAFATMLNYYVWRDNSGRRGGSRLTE
T2 sequence (P41145 whole entry): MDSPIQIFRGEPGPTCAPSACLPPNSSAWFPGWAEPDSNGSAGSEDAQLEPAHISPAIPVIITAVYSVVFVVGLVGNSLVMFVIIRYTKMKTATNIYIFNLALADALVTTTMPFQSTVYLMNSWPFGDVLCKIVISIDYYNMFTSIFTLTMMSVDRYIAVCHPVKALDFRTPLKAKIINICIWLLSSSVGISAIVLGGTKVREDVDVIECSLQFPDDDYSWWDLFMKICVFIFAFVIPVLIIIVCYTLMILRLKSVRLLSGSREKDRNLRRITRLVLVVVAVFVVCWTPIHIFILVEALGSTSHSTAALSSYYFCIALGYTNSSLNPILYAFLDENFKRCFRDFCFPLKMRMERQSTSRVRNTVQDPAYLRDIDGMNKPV
T1 sequence (P35372 whole entry): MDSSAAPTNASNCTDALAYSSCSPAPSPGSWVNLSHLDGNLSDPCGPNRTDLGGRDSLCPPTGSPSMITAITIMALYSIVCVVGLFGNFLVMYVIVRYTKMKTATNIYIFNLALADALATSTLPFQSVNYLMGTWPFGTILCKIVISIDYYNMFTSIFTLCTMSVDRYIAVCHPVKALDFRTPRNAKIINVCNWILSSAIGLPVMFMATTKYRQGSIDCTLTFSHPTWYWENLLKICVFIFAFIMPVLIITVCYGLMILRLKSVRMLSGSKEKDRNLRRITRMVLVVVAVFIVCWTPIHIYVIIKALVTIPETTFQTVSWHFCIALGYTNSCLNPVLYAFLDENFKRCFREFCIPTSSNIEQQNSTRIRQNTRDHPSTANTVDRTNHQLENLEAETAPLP
hDAT, sequence (Q01959 whole entry): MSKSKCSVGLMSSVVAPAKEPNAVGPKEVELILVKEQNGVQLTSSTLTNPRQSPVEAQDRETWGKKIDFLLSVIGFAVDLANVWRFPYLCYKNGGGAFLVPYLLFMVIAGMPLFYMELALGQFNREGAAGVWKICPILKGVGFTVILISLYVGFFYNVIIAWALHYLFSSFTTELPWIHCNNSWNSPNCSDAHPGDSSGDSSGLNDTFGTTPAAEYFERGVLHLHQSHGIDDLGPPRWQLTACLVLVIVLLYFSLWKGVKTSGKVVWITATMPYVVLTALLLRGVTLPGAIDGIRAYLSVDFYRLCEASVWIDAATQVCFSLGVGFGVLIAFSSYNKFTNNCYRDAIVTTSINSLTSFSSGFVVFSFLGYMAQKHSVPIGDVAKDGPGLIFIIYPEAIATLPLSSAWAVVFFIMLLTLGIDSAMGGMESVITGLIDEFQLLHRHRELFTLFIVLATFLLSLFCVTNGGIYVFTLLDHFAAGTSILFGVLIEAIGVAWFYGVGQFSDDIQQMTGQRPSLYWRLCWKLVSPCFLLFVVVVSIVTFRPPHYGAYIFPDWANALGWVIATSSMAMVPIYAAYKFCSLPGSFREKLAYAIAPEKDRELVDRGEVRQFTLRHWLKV

Compound	Ki (rat kidney TSPO) [µM]	DAT, inhibition, % of control at 10 μM (hDAT)	Ki (DOR [3]) [µM]	inhibition at 10 µM (hA1AR) [%]	Ki (KOR [6]) [µM]	Ki (hA3AR) [µM]	Ki (MOR [5]) [µM]	other results
CNC(=O)[C@@]12C[C@@H]1[C@@H](n1cnc3c(NCc4cccc(Cl)c4)nc(C#Cc4ccc(F)c(F)c4)nc31)[C@H](O)[C@@H]2O [compound 4]	~0.3	16%	2.48 ± 0.79	–	–	–	–	MOR Antag (%) (MOR [1]): 18.8%; MOR Ag (%) (MOR [1]): –1.6%; KOR Antag (%) (KOR [2]): 125%; DOR Antag (%) (DOR [4]): 25.3%; DOR Ag (%) (DOR [4]): –10.3%; Ki (hNOP): 4.56 ± 0.45 µM
CNC(=O)[C@@]12C[C@@H]1[C@@H](n1cnc3c(NCc4cccc(Cl)c4)nc(C#Cc4ccc(F)cc4)nc31)[C@H](O)[C@@H]2O [compound 7]	~0.3	21%	–	22	–	–	–	–
CCCNc1nc(C#Cc2ccc(Cl)s2)nc2c1ncn2[C@H]1[C@H](O)[C@H](O)[C@]2(C(=O)NC)C[C@H]12 [compound 18]	1.31 ± 0.21	–159%	–	22	–	–	–	DOR, inhibition of radioligand binding at 10 μM (class) (DOR [3]; Table 1): ^e (30–50% inhibition of radioligand binding at 10 μM)
CCOC(=O)[C@@]12C[C@@H]1[C@@H](n1cnc3c(NC)nc(C#Cc4ccc(Br)s4)nc31)[C@H](O)[C@@H]2O [compound 25]	1.52 ± 0.25	–430%	–	–	0.975 ± 0.198	–	–	MOR Antag (%) (MOR [1]): 22.6%; MOR Ag (%) (MOR [1]): –1.2%; MOR, inhibition of radioligand binding at 10 μM (class) (MOR [5]): ^c (30–50% inhibition of radioligand binding at 10 μM); KOR Antag (%) (KOR [2]): 88.1%; DOR, inhibition of radioligand binding at 10 μM (class) (DOR [3]; Table 2): ^c (30–50% inhibition of radioligand binding at 10 μM); DOR Antag (%) (DOR [4]): –6.0%; DOR Ag (%) (DOR [4]): –1.7%; Ki (hNOP): > 10 µM
CCOC(=O)[C@@]12C[C@@H]1[C@@H](n1ccc3c(NC)nc(C#Cc4ccc(Br)s4)nc31)[C@H](O)[C@@H]2O [compound 29, Ethyl(1S,2R,3S,4R,5S)-4-(2-((5-bromothiophen-2-yl)ethynyl)-4-(methylamino)-7H-pyrrolo[2,3-d]pyrimidin-7-yl)-2,3-dihydroxybicyclo[3.1.0]hexane-1-carboxylate]	0.765 ± 0.118	–102 ± 8 (3) %	0.437 ± 0.094	–	0.039 ± 0.001	0.466 ± 0.02	0.368 ± 0.135	MOR Antag (%) (MOR [1]): 96.9%; MOR Ag (%) (MOR [1]): 1.6%; EC50 (hDAT): > 1 µM; KOR Antag (%) (KOR [2]): 104.5%; DOR Antag (%) (DOR [4]): 93.2%; DOR Ag (%) (DOR [4]): –1.1%; Ki (hNOP): 2.76 ± 0.67 µM; preference for KOR in comparison to DOR (KOR [6]; ratio of Ki): 11 fold; preference for KOR in comparison to MOR (KOR [6]; ratio of Ki): 9 fold; preference for KOR in comparison to TSPO (KOR [6]; ratio of Ki): ~20 fold
Oc1ccc2c3c1O[C@H]1c4[nH]c5c(c4C[C@@]4(O)[C@@H](C2)N(CC2CC2)CC[C@]314)C[C@@]1(O)[C@H]2Cc3ccc(O)c4c3[C@@]1(CCN2CC1CC1)[C@H]5O4 [compound 120, Norbinaltorphimine, reference compound]	–	–	–	–	–	–	–	βarrestin2 recruitment, Imax (% 120) (KOR [7]): 100 % 120

Second part, led by results:

Ki (rat kidney TSPO) [µM]	DAT, inhibition, % of control at 10 μM (hDAT)	Ki (DOR [3]) [µM]	inhibition at 10 µM (hA1AR) [%]	Ki (KOR [6]) [µM]	Ki (hA3AR) [µM]	Ki (MOR [5]) [µM]	Compound	other results
–	<10%	1.59 ± 0.28	–	0.104 ± 0.035	0.39 ± 0.139	–	CCOC(=O)[C@@]12C[C@@H]1[C@@H](n1ccc3c(NC)nc(I)nc31)[C@H](O)[C@@H]2O [compound 39, Ethyl(1S,2R,3S,4R,5S)-2,3-dihydroxy-4-(2-iodo-4-(methylamino)-7H-pyrrolo[2,3-d]pyrimidin-7-yl)bicyclo[3.1.0]hexane-1-carboxylate]	TSPO, inhibition of radioligand binding at 10 μM (class) (rat kidney TSPO; Table 2): ^d (<30% inhibition of radioligand binding at 10 μM); MOR, inhibition of radioligand binding at 10 μM (class) (MOR [5]): ^c (30–50% inhibition of radioligand binding at 10 μM); βarrestin2 recruitment, Imax (% 120) (KOR [7]; antagonism of 1 μM U69593 98): 77 ± 3 % 120
> 10	–66%	1.78 ± 0.41	35	0.0915 ± 0.0237	0.344 ± 0.04	1.48 ± 0.45	CCOC(=O)[C@@]12C[C@@H]1[C@@H](n1ccc3c(NC)nc(C#Cc4ccccc4)nc31)[C@H](O)[C@@H]2O [compound 40, Ethyl(1S,2R,3S,4R,5S)-2,3-dihydroxy-4-(4-(methylamino)-2-(phenylethynyl)-7H-pyrrolo[2,3-d]pyrimidin-7-yl)bicyclo[3.1.0]hexane-1-carboxylate]	inhibition at 10 µM (hA2AAR): 22%; βarrestin2 recruitment, Imax (% 120) (KOR [7]; antagonism of 1 μM U69593 98): 76 ± 2 % 120
–	–312%	2.4 ± 0.09	44	0.852 ± 0.137	0.228 ± 0.115	2.11 ± 0.59	CCOC(=O)[C@@]12C[C@@H]1[C@@H](n1ccc3c(NC4CC4)nc(C#Cc4ccccc4)nc31)[C@H](O)[C@@H]2O [compound 41, Ethyl(1S,2R,3S,4R,5S)-4-(4-(cyclopropylamino)-2-(phenylethynyl)-7H-pyrrolo[2,3-d]pyrimidin-7-yl)-2,3-dihydroxybicyclo[3.1.0]hexane-1-carboxylate]	TSPO, inhibition of radioligand binding at 10 μM (class) (rat kidney TSPO; Table 2): ^c (30–50% inhibition of radioligand binding at 10 μM); inhibition at 10 µM (hA2AAR): 25%
4.47 ± 1.33	–13%	–	34	1.4 ± 0.21	0.791 ± 0.433	1.3 ± 0.53	CCOC(=O)[C@@]12C[C@@H]1[C@@H](n1ccc3c(NCC4CC4)nc(C#Cc4ccccc4)nc31)[C@H](O)[C@@H]2O [compound 42, Ethyl(1S,2R,3S,4R,5S)-4-(4-((cyclopropylmethyl)amino)-2-(phenylethynyl)-7H-pyrrolo[2,3-d]pyrimidin-7-yl)-2,3-dihydroxybicyclo[3.1.0]hexane-1-carboxylate]	Ki (rat σ2 receptor): 1.11 µM; inhibition at 10 µM (hA2AAR): 20%; DOR, inhibition of radioligand binding at 10 μM (class) (DOR [3]; Table 2): ^c (30–50% inhibition of radioligand binding at 10 μM)
–	–9%	–	–	2.61 ± 0.66	0.098 ± 0.03	–	CCCCC(=O)[C@@]12C[C@@H]1[C@@H](n1ccc3c(NC)nc(C#Cc4ccc(Cl)s4)nc31)[C@H](O)[C@@H]2O [compound 44]	MOR Antag (%) (MOR [1]): –44.4%; MOR Ag (%) (MOR [1]): 6.0%; KOR Antag (%) (KOR [2]): 65.5%; DOR Antag (%) (DOR [4]): 20.3%; DOR Ag (%) (DOR [4]): 6.7%; Ki (hNOP): > 10 µM
–	24%	–	–	–	–	–	O[C@@H]1[C@H](O)[C@@H]2C[C@@H]2[C@H]1n1cnc2c(NCCc3ccccc3)nc(C#Cc3ccccc3)nc21 [compound 51]	TSPO, inhibition of radioligand binding at 10 μM (class) (rat kidney TSPO; Table 4): ^g (<30% inhibition of radioligand binding at 10 μM); Ki (rat σ2 receptor): 1.48 µM; DOR, inhibition of radioligand binding at 10 μM (class) (DOR [3]; Table 4): ^g (<30% inhibition of radioligand binding at 10 μM)
0.877 ± 0.368	7%	–	–	–	–	–	O[C@@H]1[C@H](O)[C@@H]2C[C@@H]2[C@H]1n1cnc2c(NCCc3ccccc3)nc(C#Cc3ccccc3Cl)nc21 [compound 52]	Ki (rat σ2 receptor): 1.82 µM; DOR, inhibition of radioligand binding at 10 μM (class) (DOR [3]; Table 4): ^f (30–50% inhibition of radioligand binding at 10 μM)
4.21 ± 1.84	–	2.55 ± 0.66	–	–	0.178 ± 0.032	1.44 ± 0.75	O[C@@H]1[C@H](O)[C@@H]2C[C@@H]2[C@H]1n1ccc2c(NC(C3CC3)C3CC3)nc(C#Cc3ccccc3)nc21 [compound 56, (1R,2R,3S,4R,5S)-4-(4-((Dicyclopropylmethyl)amino)-2-(phenylethynyl)-7H-pyrrolo[2,3-d]pyrimidin-7-yl)bicyclo[3.1.0]hexane-2,3-diol]	Ki (rat σ2 receptor): 0.67 µM; Ki (hA1AR): 0.65 µM; KOR, inhibition of radioligand binding at 10 μM (class) (KOR [6]; Table 5, 10 μM): ^d (30–50% inhibition of radioligand binding at 10 μM)
